We go through two compounds from patent US6472381B1, “Method of treating psoriasis” (Biomas Inc., priority 2001, dated 2002).

The assay has as its system psoriasis. Briefly: Separate tests of the single agents for treating psoriasis. The conditions noted are these: agent used alone. It counts as in vivo, human. The text has this:
Salicylic acid alone was ineffective.

As to `O=C(O)c1ccccc1O` [Salicylic acid, salicylic acid], the “efficacy for treating psoriasis” value is reported as “ineffective”. As for `Cl[Te]1(Cl)(Cl)OCCO1.N` [ammonium trichloro (dioxoethylene-O,O′) tellurate], the “efficacy for treating psoriasis” value is recorded as “effective for treating psoriasis but worked very slowly”.
